In patent US20100130607A1, “NEUROPROTECTION IN DEMYELINATING DISEASES” (priority 2007, published 2010):
“Also recorded” adds a separate entry of the source. Structures can show the parent of a compound that is named as a salt.

Assays:
[1] = system: MOG-EAE in C57BL/6 mice; assay: Clinical course (clinical score) of active MOG-EAE; type: in vivo; details: oral, from day -20, up to 72 days p.i., vs methocel control
Experimental: Treatment started at day -20 before the injection of MOG. The following compounds were administered orally to three groups of mice as follows: 1) Ca-monomethyl fumarate 5 mg/kg body weight bid; 2) dimethyl fumarate 15 mg/kg body weight bid; 3) 0.08% methocel as control. For analyzing the clinical course, data was pooled from two experiments (one experiment with 6 mice and another with 8 mice per group yielding a total number of 14 mice per experimental group). Clinical evaluation-Symptoms were scored 1-10 on a daily basis as described in Linker et al., Nat. Med., 2002, […] (see also Hartung et al., Brain, 1988, 11, 1039-1059). Briefly, disease severity was scored as follows: 0, normal; 1, reduced tone of tail; 2, limp tail, impaired righting; 3, absent righting; 4, gait ataxia; 5, mild paraparesis of hindlimbs; 6, moderate paraparesis; 7, severe paraparesis or paraplegia; 8, tetraparesis; 9, moribund; 10, death. Relapses were defined as deterioration by 2 points or more within 2 days. […] Animals were pooled from two experiments (total number of 14 mice per group). Mice were followed until the late phase of the disease (72 days p.i.).

[2] = system: MOG-EAE in C57BL/6 mice; assay: Blinded histological analysis of spinal cord in MOG-EAE, 72 days p.i.; type: in vivo; details: oral, vs methocel control; for numbers of CD 3 positive T cells infiltrating the spinal cord / numbers of Mac-3 positive macrophages and microglia infiltrating the spinal cord: 72 days after induction of MOG-EAE; for axonal loss (relative axonal density) / level of demyelination (% white matter): spinal cord, 72 days p.i.
Experimental: Treatment started at day -20 before the injection of MOG. The following compounds were administered orally to three groups of mice as follows: 1) Ca-monomethyl fumarate 5 mg/kg body weight bid; 2) dimethyl fumarate 15 mg/kg body weight bid; 3) 0.08% methocel as control. For analyzing the clinical course, data was pooled from two experiments (one experiment with 6 mice and another with 8 mice per group yielding a total number of 14 mice per experimental group). Histology-One experiment was terminated on day 72 p.i. for histologic evaluation. At that time point, 6 mice in the MMF and 6 mice in the control group were available for analysis. The DMF group consisted of 4 mice (2 non-EAE related drop-outs). Mice were anesthetized with ether, bled and perfused with 25 ml Ringer solution and 10 ml of 4% paraformaldehyde in buffered PBS. Spinal cord was dissected out and fixed overnight in 4% paraformaldehyde in buffered PBS at 4° C. before embedding in paraffin. Paraffin sections were stained with hematoxylin and eosin for visualization of inflammatory infiltrates and Luxol fast blue for visualization of demyelination. Coded sections from cervical, thoracic and lumbar spinal cord were evaluated by a blinded observer by means of overlaying a stereological grid and counting mean CD3 and Mac-3 positive cells within 3 visual fields (each 0.096 mm^2) with the most intense pathology under a 400-fold magnification. The extent of demyelination was assessed by relating the number of grid squares with demyelination to the total number of grid squares containing white matter over an average of 8-10 independent levels of spinal cord per mouse. CD3, Mac-3 positive cells and APP positive axons were quantified on 3 representative sections, each one of cervical, thoracic and lumbar spinal cord by counting 2 defined areas with the most intense pathology under a 40-fold magnification. Histological evaluation was performed as described in Eugster et al., Eur. J. Immunol., 1999, […].

[3] = Ca-monomethyl fumarate 5 mg/kg bid

Row | Structure (SMILES) | clinical score / disease course ([1]; dimethyl fumarate 15 mg/kg body weight bid) | numbers of CD 3 positive T cells infiltrating the spinal cord ([2]; dimethyl fumarate 15 mg/kg bid) | numbers of Mac-3 positive macrophages and microglia infiltrating the spinal cord ([2]; dimethyl fumarate 15 mg/kg bid) | axonal loss (relative axonal density) ([2]; dimethyl fumarate 15 mg/kg bid) | level of demyelination (% white matter) ([2]; dimethyl fumarate 15 mg/kg bid) | clinical score / disease course ([1]; Ca-monomethyl fumarate 5 mg/kg body weight bid) | numbers of CD 3 positive T cells infiltrating the spinal cord [2, 3] | numbers of Mac-3 positive macrophages and microglia infiltrating the spinal cord [2, 3] | axonal loss (relative axonal density) [2, 3] | level of demyelination (% white matter) [2, 3]
1 | COC(=O)/C=C/C(=O)OC [DMF, dimethyl fumarate, reference compound] | significantly milder disease course; also recorded: effective to reduce the clinical score up to 72 days p.i | not significantly different | not significantly different | reduced | reduced |  |  |  |  | 
2 | COC(=O)/C=C/C(=O)O [MMF, Ca-monomethyl fumarate] |  |  |  |  |  | not sufficient to significantly affect the clinical score | not significantly different | not significantly different | reduced demyelination and axonal loss | reduced demyelination and axonal loss
